The subject of data set [1] is AR 1.0 cells. The data set can be described thus: Drug accumulation assay: daunorubicin accumulation in AR 1.0 cells. Format: cell-based. To be noted: Mus musculus, 100% = accumulation with verapamil 100 μM, 1 hr, 37° C. The method, boiled down: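 Daunorubicin accumulation was measured in cells plated 48 h beforehand. These were AR 1.0 cells, an MDR-resistant derivative of mouse EMT6 mammary carcinoma, cultured at 37 °C in 5% CO2 in RPMI 1640 plus 10% foetal calf serum and 2 mM glutamine.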

Data set [2] deals with AR 1.0 cells. As to the kind of experiment: Potentiation of doxorubicin toxicity: proliferation assay (sulphorhodamine B). Format: cell-based, mouse. The text has this:
(a) Selected compounds of formula (I) were examined for their ability to potentiate the toxicity of doxorubicin in AR 1.0 cells.

Data set [3] relates to AR 1.0 cells. As to the kind of experiment: Potentiation index with doxorubicin titration. The settings on record: for Potentiation Index at RMA concentration 30 nM: Table C2, RMA 30 nM; for Potentiation Index at RMA concentration 100 nM: Table C2, RMA 100 nM; for Potentiation Index at RMA concentration 300 nM: Table C2, RMA 300 nM; for Potentiation Index at RMA concentration 500 nM: Table C2, RMA 500 nM; for Potentiation Index at RMA concentration 10 nM: Table C2, RMA 10 nM. The class given is cell-based, mouse. The method, boiled down: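 Doxorubicin IC50 in AR 1.0 cells (MDR subline of EMT6 mouse mammary carcinoma) determined by sulphorhodamine B after 4-day culture across 0.263 nM-17.24 μM, with and without a fixed dose of test compound; their ratio gives the PI.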

The mark [4] stands for this setting: Mus musculus, 96 h, compound alone, four day proliferation, read-out: Compound Toxicity (IC50).
Setting [5] is: with fixed doxorubicin 0.34 μm, four days, 5760 min, read-out: Toxicity with Cytotoxic Agent (IC50).

In the data set on AR 1.0 cells [1], `COc1cc2c(cc1OC)CN(CCc1ccc(NC(=O)c3ccccc3NC(=O)c3cccc(Cl)c3)cc1)CC2` [compound 9495, 2-(3-chloro-benzoylamino)-N-{4-[2-(617-dimethoxy-3,4-dihydro-1H-isoquinolin-2-yl)-ethyl]-phenyl}-benzamide] displayed an IC50 of 0.5 µM. The IC50 in the data set on AR 1.0 cells [2] (setting [4]) came to 4 µM. In the data set with AR 1.0 cells [3], the “Potentiation Index at RMA concentration 30 nM” value worked out at 1.3, the “Potentiation Index at RMA concentration 100 nM” value was determined as 15, the “Potentiation Index at RMA concentration 300 nM” value is 261 and the “Potentiation Index at RMA concentration 500 nM” value was found to be 567.

As to `COc1cc2c(cc1OC)CN(CCc1ccc(NC(=O)c3c(F)cccc3NC(=O)c3cnc4ccccc4n3)cc1)CC2` [compound 9564, Quinoxaline-2-carboxylic acid (2-{4-[2-(6,7-dimethoxy-3,4-dihydro-1H-isoquinolin-2-yl)-ethyl]-phenylcarbamoyl}-3-fluoro-phenyl)-amide], the IC50 in the data set on AR 1.0 cells [1] was 0.2 µM; in the data set with AR 1.0 cells [2] (setting [4]) it was 0.4 µM; with AR 1.0 cells [2] (setting [5]) it was 0.008 µM. For the same compound, in the data set on AR 1.0 cells [3], the “Potentiation Index at RMA concentration 100 nM” value is 129.

In the data set with AR 1.0 cells [1], `COc1cc2c(cc1OC)CN(CCc1ccc(NC(=O)c3cc4c(cc3NC(=O)c3cnc5ccccc5c3)OCO4)cc1)CC2` [compound 9578, Quinoline-3-carboxylic acid (6-{4-[2-(6,7-dimethoxy-3,4-dihydro-1H-isoquinolin-2-yl)-ethyl]-phenylcarbamoyl}-benzo[1,3]dioxoi-5-yl)-amide] yielded an IC50 of 0.084 µM. In addition, the IC50 in the data set on AR 1.0 cells [2] (setting [4]) worked out at 0.9 µM. Moreover, in the data set with AR 1.0 cells [3], the “Potentiation Index at RMA concentration 10 nM” value amounted to 43 and the “Potentiation Index at RMA concentration 30 nM” value was determined as 188.

With `COc1cccc(C(=O)Nc2ccccc2C(=O)Nc2ccc(CCN3CCc4cc(OC)c(OC)cc4C3)cc2)c1` [compound 9517, 2-(3-Methoxy-benzoclamino)-N-{4-[2-(6,7-dimethoxy-3,4-dihydro-1H-isoquinolin-2-yl)-ethyl]-phenyl}-benzamide], the IC50 was determined as 0.4 µM in the data set with AR 1.0 cells [1], 2 µM in the data set with AR 1.0 cells [2] (setting [4]) and 0.05 µM in the data set on AR 1.0 cells [2] (setting [5]). In the data set on AR 1.0 cells [3], the “Potentiation Index at RMA concentration 300 nM” value worked out at 40. The “Potentiation Index at RMA concentration 500 nM” value with AR 1.0 cells [3] amounted to 120.

`COc1cc2c(cc1OC)CN(CCc1ccc(NC(=O)c3ccc(F)cc3NC(=O)c3cnc4ccccc4c3)cc1)CC2` [compound 9571, Quinoline-3-carboxylic acid (2-{4-[2-(6,7-dimethoxy-3,4-dihydro-1H-isoquinolin-2-yl)-ethyl]-phenylcarbamoyl}-5-fluoro-phenyl)-amide] returned a half-inhibitory concentration (IC50) with AR 1.0 cells [1] of 0.022 µM. The IC50 in the data set on AR 1.0 cells [2] (setting [4]) stood at 2 µM. The IC50 in the data set on AR 1.0 cells [2] (setting [5]) is 0.0008 µM. Moreover, in the data set with AR 1.0 cells [3], the “Potentiation Index at RMA concentration 10 nM” value amounted to 38, the “Potentiation Index at RMA concentration 30 nM” value was 100 and the “Potentiation Index at RMA concentration 100 nM” value worked out at 100.

On to `COc1cc2c(cc1OC)CN(CCNC(=O)c1ccccc1NC(=O)c1cc3ccccc3cn1)CC2` [compound 9389, Isoquinoline-3-carboxylic acid {2-[2-(6,7-dimethoxy-3,4-dihydro-1H-isoquinolin-2-yl)-ethylcarbamoyl]-phenyl}-amide], for which the 50% inhibitory concentration (IC50) was found to be 1.8 µM with AR 1.0 cells [1] and 30 µM with AR 1.0 cells [2] (setting [4]).

As for `COc1cc2c(cc1OC)CN(CCNC(=O)c1ccccc1NC(=O)c1ccc(Br)cc1)CC2` [compound 9380, 2-(4-Bromo-benzoylamino)-N-[2-(6,7-dimethoxy-3,4-dihydro-1H-isoquinolin-2-yl)-ethyl]-benzamide], the IC50 with AR 1.0 cells [1] came to 0.9 µM; in the data set with AR 1.0 cells [2] (setting [4]) it was 40 µM; with AR 1.0 cells [2] (setting [5]) it was 0.5 µM.

`COc1cc2c(cc1OC)CN(CCc1ccc(NC(=O)c3ccccc3NC(=O)c3cccc(OC(C)=O)c3)cc1)CC2` [compound 9540, Acetic acid 3-(2-{4-[2-(6,7-dimethoxy-3,4-dihydro-1H-isoquinolin-2-yl)-ethyl]-phenylcarbamoyl}-phenylcarbamoyl)-phenyl ester]: the values for the concentration for half-maximal inhibition (IC50) in the data set with AR 1.0 cells [1], with AR 1.0 cells [2] (setting [4]) and with AR 1.0 cells [2] (setting [5]) were 1.2 µM, 6.2 µM and 1 µM, respectively.

`COc1cc2c(cc1OC)CN(CCNC(=O)c1ccccc1NC(=O)c1ccsc1)CC2` [compound 9365, Thiophene-3-carboxylic acid {2-[2-(6,7-dimethoxy-3,4-dihydro-1H-isoquinolin-2-yl)-ethylcarbamoyl]-phenyl}-amide]: the half-inhibitory concentration (IC50) in the data set on AR 1.0 cells [1] was determined as 2 µM; in the data set on AR 1.0 cells [2] (setting [4]), 42 µM; in the data set with AR 1.0 cells [2] (setting [5]) it was 0.8 µM.

Regarding `COc1cc2c(cc1OC)CN(CCNC(=O)c1ccccc1NC(=O)c1ccccc1)CC2` [compound 9351, 2-Benzoylamino-N-[2-(6,7-dimethoxy-3,4-dihydro-1H-isoquinolin-2-yl)-ethyl]-benzamide], the values for the IC50 in the data set on AR 1.0 cells [1], with AR 1.0 cells [2] (setting [4]) and in the data set with AR 1.0 cells [2] (setting [5]) were 9 µM, 43 µM and 1.3 µM, respectively.

Turning to `COc1cc2c(cc1OC)CN(CCc1ccc(NC(=O)c3ccccc3NC(=O)c3ccc(OC(C)=O)cc3)cc1)CC2` [compound 9548, Acetic acid 4-(2-{4-[2-(6,7-dimethoxy-3,4-dihydro-1H-isoquinolin-2-yl)-ethyl]-phenylcarbamoyl}-phenylcarbamoyl)-phenyl ester], the IC50 with AR 1.0 cells [1] is 4.9 µM; in the data set with AR 1.0 cells [2] (setting [4]), 1.8 µM; in the data set with AR 1.0 cells [2] (setting [5]), 1 µM.

`COc1cc2c(cc1OC)CN(CCNC(=O)c1ccccc1NC(=O)c1ccc(C(C)(C)C)cc1)CC2` [compound 9334, 2-(4-tert-Butyl-benzoylamino)-N-[2-(6,7-dimethoxy-3,4-dihydro-1H-isoquinolin-2-yl)-ethyl]-benzamide]: the IC50 in the data set on AR 1.0 cells [1] amounted to 1.3 µM; in the data set with AR 1.0 cells [2] (setting [4]) it was 8 µM; with AR 1.0 cells [2] (setting [5]) it was 0.05 µM.

Consider `COc1cc2c(cc1OC)CN(CCNC(=O)c1ccccc1NC(=O)c1cc3ccccc3[nH]1)CC2` [compound 9367], for which the figures for the IC50 in the data set with AR 1.0 cells [1], in the data set on AR 1.0 cells [2] (setting [4]) and in the data set on AR 1.0 cells [2] (setting [5]) were 1 µM, 15 µM and 0.5 µM, respectively.

As for `CCN(CC)c1ccc(C(=O)Nc2ccccc2C(=O)NCCN2CCc3cc(OC)c(OC)cc3C2)cc1` [compound 9310, 2-(4-Diethylamino-benzoylamino)-N-[2-(6,7-dimethoxy-3,4-dihydro-1H-isoquinolin-2-yl)-ethyl]-benzamide], the IC50 turned out to be 1.2 µM in the data set with AR 1.0 cells [1], 22 µM in the data set on AR 1.0 cells [2] (setting [4]) and 0.24 µM in the data set on AR 1.0 cells [2] (setting [5]).

Turning to `COc1cc2c(cc1OC)CN(CCNC(=O)c1ccccc1NC(=O)c1nccc3ccccc13)CC2` [compound 9383, Isoquinoline-1-carboxylic acid {2-[2-(6,7-dimethoxy-3,4-dihydro-1H-isoquinolin-2-yl)-ethylcarbamoyl]-phenyl}-amide], the IC50 in the data set on AR 1.0 cells [1] stood at 2 µM; in the data set with AR 1.0 cells [2] (setting [4]), 40 µM.

Turning to `COc1cc2c(cc1OC)CN(CCNC(=O)c1ccccc1NC(=O)c1cnc3ccccc3n1)CC2` [compound 9347, Quinoxaline-2-carboxylic acid {2-[2-(6,7-dimethoxy-3,4-dihydro-1H-isoquinolin-2-yl)-ethylcarbamoyl]-phenyl}-amide], the IC50 came out at 3 µM with AR 1.0 cells [1], 35 µM in the data set on AR 1.0 cells [2] (setting [4]) and 0.6 µM with AR 1.0 cells [2] (setting [5]).

As to `COc1cc2c(cc1OC)CN(CCc1ccc(NC(=O)c3ccccc3NC(=O)c3ccccc3OC(C)=O)cc1)CC2` [compound 9534, Acetic acid 2-(2-{4-[2-(6,7-dimethoxy-3,4-dihydro-1H-isoquinolin-2-yl)-ethyl]-phenylcarbamoyl}-phenylcarbamoyl)-phenyl ester], the IC50 with AR 1.0 cells [1] worked out at 0.14 µM; with AR 1.0 cells [2] (setting [4]), 6.6 µM; with AR 1.0 cells [2] (setting [5]), 0.0002 µM.

Take `COc1cc2c(cc1OC)CN(CCNC(=O)c1ccccc1NC(=O)c1ccc3ccccc3n1)CC2` [compound 9385, Quinoline-2-carboxylic acid {2-[2-(6,7-dimethoxy-3,4-dihydro-1H-isoquinolin-2-yl)-ethylcarbamoyl]-phenyl}-amide]: the 50% inhibitory concentration (IC50) was 1.2 µM in the data set on AR 1.0 cells [1] and 40 µM in the data set with AR 1.0 cells [2] (setting [4]).

On to `COc1cc2c(cc1OC)CN(CCNC(=O)c1ccccc1NC(=O)c1ccc(N(C)C)cc1)CC2` [compound 9256], for which the IC50 was 1.7 µM with AR 1.0 cells [1], 40 µM in the data set with AR 1.0 cells [2] (setting [4]) and 0.3 µM in the data set on AR 1.0 cells [2] (setting [5]).

As for `COc1cc2c(cc1OC)CN(CCNC(=O)c1ccc(N)cc1NC(=O)c1ccc(C(C)C)cc1)CC2` [compound 9435, 2-(4-Isopropyl-benzoylamino)-N-[2-(6,7-dimethoxy-3,4-dihydro-1H-isoquinolin-2-yl)-ethyl]-4-amino-benzamide], the 50% inhibitory concentration (IC50) in the data set with AR 1.0 cells [1] is 1.9 µM; with AR 1.0 cells [2] (setting [4]), 9 µM; with AR 1.0 cells [2] (setting [5]) it was 0.4 µM.

Turning to `COc1cc2c(cc1OC)CN(CCc1ccc(NC(=O)c3ccccc3NC(=O)c3cccc(O)c3)cc1)CC2` [compound 9549, 2-(3-Hydroxy-benzoylamino)-N-{4-[2-(6,7-dimethoxy-3,4-dihydro-1H-isoquinolin-2-yl)-ethyl]-phenyl}-benzanlide], the concentration for half-maximal inhibition (IC50) was 4.3 µM in the data set with AR 1.0 cells [1], 5.6 µM in the data set on AR 1.0 cells [2] (setting [4]) and 0.52 µM in the data set with AR 1.0 cells [2] (setting [5]).

Regarding `COc1cc2c(cc1OC)CN(CCc1ccc(NC(=O)c3ccccc3NC(=O)c3ccc4ccccc4n3)cc1)CC2` [compound 9545, Quinoline-2-carboxylic acid (2-{4.-[2-(6,7-dimethoxy-3,4-dihydro-1H-isoquinolin-2-yl)-ethyl]-phenylcarbamoyl}-phenyl)-amide], the figures for the IC50 in the data set with AR 1.0 cells [1] and with AR 1.0 cells [2] (setting [4]) were 0.8 µM and 1.7 µM, respectively.

As for `COc1cc2c(cc1OC)CN(CCNC(=O)c1ccccc1NC(=O)c1ccc([N+](=O)[O-])cc1)CC2` [compound 9381, 2-(4-Nitro-benzoylamino)-N-[2-(6,7-dimethoxy-3,4-dihydro-1H-isoquinolin-2-yl)-ethyl]-benzamide], the IC50 is 3 µM with AR 1.0 cells [1], 50 µM in the data set on AR 1.0 cells [2] (setting [4]) and 1.5 µM with AR 1.0 cells [2] (setting [5]).

(Values after patent US6218393A, “Anthranilic acid derivatives as multi drug resistance modulators” (priority 1997, dated 2001).)
